In ChEMBL document CHEMBL1155324, “Synthesis and evaluation of a series of 2,4-diaminopyridine derivatives as potential positron emission tomography tracers for neuropeptide Y Y1 receptors” (Bioorg Med Chem Lett, 2009):

Experiments:
[1] = Octanol-water distribution coefficient log Dat pH 7.4 by water-plug aspiration/injection method combined with HPLC-mass spectrometry
[2] = molecular target: T1, Neuropeptide Y receptor type 1 (Homo sapiens, UniProt P25929); test: Displacement of [125I]-PYY from human NPYY1 receptor overexpressed in CHO cell membrane after 120 mins by scintillation counting; type: cell membranes
T1 sequence (P25929 whole entry): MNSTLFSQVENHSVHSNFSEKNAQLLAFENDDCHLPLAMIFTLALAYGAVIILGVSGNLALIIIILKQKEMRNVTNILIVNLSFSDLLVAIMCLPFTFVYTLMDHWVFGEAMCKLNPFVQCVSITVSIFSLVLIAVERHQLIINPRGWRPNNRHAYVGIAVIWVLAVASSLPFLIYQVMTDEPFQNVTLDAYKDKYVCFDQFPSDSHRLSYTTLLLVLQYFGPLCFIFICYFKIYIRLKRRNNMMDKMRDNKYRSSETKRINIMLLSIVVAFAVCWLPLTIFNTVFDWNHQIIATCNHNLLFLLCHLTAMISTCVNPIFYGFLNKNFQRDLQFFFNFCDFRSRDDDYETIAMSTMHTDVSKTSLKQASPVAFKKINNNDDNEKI

[3] = molecular target: Neuropeptide Y receptor type 4 (Homo sapiens, UniProt P50391); test: Displacement of [125I]-PYY from human NPYY4 receptor
[4] = molecular target: T2, Neuropeptide Y receptor type 2 (Homo sapiens, UniProt P49146); test: Displacement of [125I]-PYY from human NPYY2 receptor
T2 sequence (P49146 whole entry): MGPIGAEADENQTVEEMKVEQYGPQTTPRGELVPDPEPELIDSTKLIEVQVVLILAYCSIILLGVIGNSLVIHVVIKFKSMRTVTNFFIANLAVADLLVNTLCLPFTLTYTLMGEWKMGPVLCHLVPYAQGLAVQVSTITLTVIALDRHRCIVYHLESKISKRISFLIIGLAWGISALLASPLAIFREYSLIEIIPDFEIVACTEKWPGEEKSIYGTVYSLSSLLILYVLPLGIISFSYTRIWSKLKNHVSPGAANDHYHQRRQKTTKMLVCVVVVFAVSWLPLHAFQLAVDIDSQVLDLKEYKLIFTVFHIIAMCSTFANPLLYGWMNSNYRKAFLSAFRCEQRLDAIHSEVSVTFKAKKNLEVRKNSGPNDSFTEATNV

[5] = molecular target: T3, Neuropeptide Y receptor type 5 (Homo sapiens, UniProt Q15761); test: Displacement of [125I]-PYY from human NPYY5 receptor
T3 sequence (Q15761 whole entry): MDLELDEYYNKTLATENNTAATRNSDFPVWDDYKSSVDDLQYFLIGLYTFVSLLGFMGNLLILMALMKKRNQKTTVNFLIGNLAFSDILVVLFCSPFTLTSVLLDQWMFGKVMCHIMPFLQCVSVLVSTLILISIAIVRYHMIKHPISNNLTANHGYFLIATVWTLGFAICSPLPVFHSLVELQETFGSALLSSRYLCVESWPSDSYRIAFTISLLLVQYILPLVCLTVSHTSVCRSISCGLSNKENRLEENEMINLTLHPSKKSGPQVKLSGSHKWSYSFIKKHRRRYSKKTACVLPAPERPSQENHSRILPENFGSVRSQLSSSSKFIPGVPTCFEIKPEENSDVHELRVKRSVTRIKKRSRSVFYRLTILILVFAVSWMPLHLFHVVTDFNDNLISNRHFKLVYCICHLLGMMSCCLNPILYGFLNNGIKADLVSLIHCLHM

[6] = Ratio of permeability from basal to apical side to apical to basal side of human KB-3-1 cells by scintillation counting; type: ADME, cell-based

Chain of Neuropeptide Y receptor type 4 (P50391 whole entry): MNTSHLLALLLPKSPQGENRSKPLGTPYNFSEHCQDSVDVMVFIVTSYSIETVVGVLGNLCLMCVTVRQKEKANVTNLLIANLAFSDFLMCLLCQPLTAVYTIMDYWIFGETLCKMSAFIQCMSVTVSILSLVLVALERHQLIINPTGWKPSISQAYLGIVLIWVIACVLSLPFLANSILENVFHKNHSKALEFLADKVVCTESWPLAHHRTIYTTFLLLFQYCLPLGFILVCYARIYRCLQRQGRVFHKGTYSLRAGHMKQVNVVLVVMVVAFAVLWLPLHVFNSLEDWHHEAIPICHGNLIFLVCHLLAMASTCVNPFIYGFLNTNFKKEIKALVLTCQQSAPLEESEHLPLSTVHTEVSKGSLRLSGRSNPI

SMILES | logD [1] | IC50 [2] | IC50 [3] | IC50 [4] | IC50 [5] | efflux ratio [6]
Cc1nc(SCc2cc(N3CCSCC3)cc(NCc3cccc(F)n3)n2)oc1C | 3.5 | – | – | – | – | –
Cc1cccc(CNc2cc(N3CCOCC3)cc(CSc3nc4c(o3)CCCC4)n2)n1 | 3.5 | 0.46 nM | – | – | – | –
Cc1cccc(CNc2cc(N3CCOCC3)cc(CSc3nc(C)c(C)s3)n2)n1 | 2.9 | 0.27 nM | – | – | – | –
Cc1cccc(CNc2cc(N3CCOCC3)cc(CSc3nc(C)c(CF)s3)n2)n1 | 2.3 | 0.56 nM | – | – | – | –
Cc1nc(SCc2cc(N3CCS(=O)(=O)CC3)cc(NCc3cccc(F)n3)n2)oc1C | 2.3 | 8 nM | – | – | – | –
Cc1nc(SCc2cc(N3CCOCC3)cc(NCc3cccc(COCCF)n3)n2)oc1C | 2.6 | 10 nM | – | – | – | –
Cc1cccc(CNc2cc(N3CCS(=O)(=O)CC3)cc(CSc3nc(C)c(C)o3)n2)n1 | 2.2 | 1.7 nM | – | – | – | –
CCc1oc(SCc2cc(N3CCOCC3)cc(NCc3cccc(C)n3)n2)nc1C | 3.1 | 0.39 nM | – | – | – | –
CCc1sc(SCc2cc(N3CCOCC3)cc(NCc3cccc(C)n3)n2)nc1CF | – | – | > 10000 nM | > 10000 nM | > 10000 nM | –
Cc1nc(SCc2cc(N3CCOCC3)cc(NCc3ccc(F)nc3)n2)oc1C | 3 | 21 nM | – | – | – | –
Cc1cccc(CNc2cc(N3CCSCC3)cc(CSc3nc(C)c(C)o3)n2)n1 | 3.6 | 0.16 nM | – | – | – | –
Cc1cccc(CNc2cc(N3CCOCC3)cc(CSc3nc(CF)c(C)s3)n2)n1 | 2.7 | – | > 10000 nM | > 10000 nM | > 10000 nM | 1.8

The remaining lines, values ahead:

logD [1] | IC50 [2] | IC50 [3] | IC50 [4] | IC50 [5] | efflux ratio [6] | SMILES
2.8 | 4.3 nM | – | – | – | – | COCc1cccc(CNc2cc(N3CCOCC3)cc(CSc3nc(C)c(C)o3)n2)n1
3 | 7.7 nM | – | – | – | – | Cc1nc(SCc2cc(N3CCOCC3)cc(NCc3cccnc3F)n2)oc1C
2.8 | 0.69 nM | – | – | – | – | Cc1cccc(CNc2cc(N3CCOCC3)cc(CSc3nc(C)c(C)o3)n2)n1
3.1 | 1.5 nM | – | – | – | – | Cc1nc(SCc2cc(N3CCOCC3)cc(NCc3cccc(F)n3)n2)oc1C
3 | 1.8 nM | – | – | – | – | Cc1nc(SCc2cc(N3CCOCC3)cc(NCc3cccc(CF)n3)n2)oc1C
3.9 | 19 nM | – | – | – | – | Cc1nc(SCc2cc(N3CCOCC3)cc(NCc3cccc(OCCF)n3)n2)oc1C
3.1 | 5.2 nM | – | – | – | – | Cc1nc(SCc2cc(N3CCOCC3)cc(NCc3ccnc(F)c3)n2)oc1C
